Test results taken from patent US20040229837A1, “Treatment of neurodegenerative diseases” (priority 2003, published 2004).

Assays:
rats = conditions: low dosage, Popoli et al. (2002); cited from earlier work
R6/2 mice [1] = experiment: Motor coordination assessed by rotarod performance of R6/2 mice; type: in vivo; conditions: CGS treatment
wild-type mice [2] = experiment: Choline/creatine levels after chronic CGS, wild-type mice; type: in vivo; conditions: chronic IP-administration of CGS
Experimental: Animals were anesthetized using chloral hydrate (4.088 mg/10 g, i.p. injection). Measurements were performed on a Biospec 4.7 T spectrometer with an active shielding gradient at 6.9 G/cm in 500 us. Mice were placed in a prone position with a custom-designed head-holder. A 20-cm birdcage coil was used for RF excitation, and a 2-cm-diameter surface coil placed directly over the head was used for signal receiving. The volume of interest (VOI) for ^1H-MRS measurements over the striatum was selected on the basis of coronal diffusion-weighted image using a pulse gradient spin-echo diffusion method with a repetition time (TR) of 1500 ms, an echo time (TE) of 62 ms, a field of view of 3 cm×3 cm, a slice thickness of 1 mm, a b value of 1300 s/mm^2, number averages of 2, a 256 -128 matrix size zero filled to 256 -156. The diffusion-sensitive gradients were applied in the read (×) direction before and after the refocusing pulse. Point-resolved spectroscopy (PRESS) sequence, preceded by three consecutive chemical shift selective saturation (CHESS) pulses for water suppression, was used for localized spectroscopy with a 3.5 ×3.5 ×3.5 mm^3voxel located in the striatum region, a spectral width (sw) of 4000 Hz, a TR of 3.5 s, a TE of 136 ms, signal averages of 256, and total scanning time of 8 min 32 sec. The peak areas of NAA, choline (Cho), and creatine (Cr), were recognized. […]

R6/2 mice [3] = experiment: Number of glia by Nissl staining, R6/2 mice; type: in vivo; conditions: chronic CGS treatment
Experimental: (§1) Animals were deeply anesthetized with sodium pentobarbital (100 ug/g), and intracardially perfused with 4% paraformaldehyde in 0.1 M phosphate buffer (PB, pH 7.4). Brains were carefully removed, post-fixed with 4% paraformaldehyde/0. 1 M PB for 2-5 h, and then immersed in 30% glycerol in 0.1 M PB. Tissues were cut at 20 um on a freezing microtome (CM3050, Leica Microsystems Nussloch GmbH, Nussloch, Germany).
(§2) Serial-cut coronal tissue sections from the rostral segment of the neostriatum to the level of the anterior commissure (interaural 5.34 mm/bregma 1.54 mm to interaural 3.7 mm/bregma -0.1 mm) were used to define atrophy of the striatum and enlargement of the lateral ventricles. Total areas of the striatum or the lateral ventricles were measured using the software, NIH Image 1.62. Nissl- and GFAP-stained sections were quantified by counting the corresponding types of cells in defined areas of photomicrographs taken using a microscope in phase contrast.
Alternatively, elevated choline content may reflect a change in cell types. […] The number of glia was determined using the Nissl staining technique. […] The number of astrocytes, the most numerous of glial cells, was also assessed by staining the brain sections using an antibody against an astrocytic marker (glial fibrillary acidic protein, GFAP). […]

R6/2 mice [4] = experiment: Number of activated (GFAP-positive) astrocytes by immunohistochemistry, R6/2 mice; type: in vivo
Experimental: as §1
Single antigen immunohistochemistry was carried out by the avidin-biotin-peroxidase complex method as previously described (Liu et al. (1998) FEBS Lett. 436:92-98). […] The pattern of double immunostaining was analyzed with the aid of a laser confocal microscope (Bio-Rad, MRC-1000, Hercules, Calif., USA).
as §2, with “contrast. […]” for “contrast.”

wild-type mice [5] = experiment: Number of activated astrocytes, wild-type mice; type: in vivo; conditions: chronic CGS treatment
Experimental: Single antigen immunohistochemistry was carried out by the avidin-biotin-peroxidase complex method as previously described (Liu et al. (1998) FEBS Lett. 436:92-98). In brief, free-floating sections were incubated in the polyclonal anti-GFAP antiserum (1 :1000 dilution, Sigma, St. Louis, Mo., USA) at 4° C. for 36-48 h followed by a biotinconjugated goat anti-rabbit IgG (1:500, Vector Laboratories, Burlingame, Calif., USA) for 2 h, and then with an avidin-biotin-peroxidase complex for 2 h with three rinses of 0.1 M PB in between. Sections were incubated in 0.1 M PB containing 0.02% DAB and 0.08% nickel ammonium sulfate. Immunostaining was developed by adding H2O2 to a final concentration of 0.0024%. […] The pattern of double immunostaining was analyzed with the aid of a laser confocal microscope (Bio-Rad, MRC-1000, Hercules, Calif., USA).
as §2, with “contrast. […]” for “contrast.”

R6/2 mice [6] = experiment: Locomotor activity of R6/2 mice; type: in vivo; conditions: ZM241385 7.5 ug/g given with CGS

## Nc1nc2c(cnn2CCc2ccccc2)c2nc(-c3ccco3)nn12 [SCH58261]
rats
  QA-induced excitotoxicity: reduced QA-induced excitotoxicity

## CCNC(=O)[C@H]1O[C@@H](n2cnc3c(N)nc(NCCc4ccc(CCC(=O)O)cc4)nc32)[C@H](O)[C@@H]1O [CGS]
R6/2 mice [1]
  motor coordination assessed by rotarod performance: not affected
wild-type mice [2]
  changes in choline/creatine levels: no detectable changes
R6/2 mice [3]
  number of glial cells: did not affect
R6/2 mice [4]; R6/2 mice, chronic CGS treatment, in the striatum and in the cortex
  enhancement of the number of activated astrocytes: 8 fold
wild-type mice [5]
  number of activated astrocytes: not affected

## Nc1nc(NCCc2ccc(O)cc2)nc2nc(-c3ccco3)nn12 [ZM241385]
R6/2 mice [6]
  ameliorating effect of CGS on locomotor activity, blockade by antagonist: could be blocked
R6/2 mice [4]; R6/2 mice treated with ZM and CGS simultaneously, n=4
  number of activated astrocytes in the striatum: 43±8 /mm^2
